{"source": "patent US9138449B2", "about": "“Medicinal composition for liver diseases” (Shanghai Sundise Chinese Medicine Technology Development …, priority 2006, dated 2015)", "key": {"[1]": {"test_system": "hepatic fibrosis in rats induced by dimethylnitrosamine (DMN)", "assay": "Treatment effect on hepatic fibrosis in rats induced by dimethylnitrosamine (DMN)", "format": "in vivo, rat", "method": "Pharmacological model: The hepatic fibrosis model was induced by intraperitoneal injections of dimethylnitrosamine at a dosage of […] rat wt, the injection was given on the first consecutive 3 days of each week over a period of 4 weeks, once per day.\nGroups and drug administration: After establishing the model, the model rats were divided into model control, Fuzheng Huayu Prep I, Fuzheng Huayu Prep II, and (N-Acetylcysteine, NAC) groups, also normal rats was set as the normal control, with total 5 groups. The model rats in Fuzheng Huayu Prep I and II took orally Fuzheng Huayu decoction at the dosage of 4.6 g/kg rat wt from the beginning of the 5th week to end of the 8th week, one time per day for 4 weeks, NAC group received NAC at the dosage of 100 mg/kg wt, and controls took the same volume of saline. (body weight equivalent to 10 times of 65 kg adult dosage)."}, "[2]": {"test_system": "liver fibrosis model in rat induced by CCl4", "assay": "Prophylaxis action on liver fibrosis in rats induced by CCl4 with high lipid, low protein food", "format": "in vivo", "method": "Pharmacological model: The liver fibrosis model in rat was induced by hypodermical injection of CCl4 and fed with the food containing high lipid and low protein. 100 wt % CCl4 was used at the first injection with a dosage of 1 ml/kg wt rat, then 40 wt % CCl4 in olive oil with a dosage of 3 ml/kg wt. was applied, twice per week and lasting for 2 weeks. During the first 2 weeks of intoxication, the rats were fed with the food containing 79.5 wt % maizena, 20 wt % grease and 0.5 wt % cholesterol, then with the pure maize food for later 4 weeks.\nAll dosages were 10 times human dosage with 65 kg by the same body weight."}, "[3]": {"conditions": "DMN fibrotic rats, 4 weeks treatment, x ± s"}, "[4]": {"conditions": "Preps 4.6 g/kg or NAC 100 mg/kg once daily, weeks 5-8"}, "[5]": {"conditions": "CCl4 fibrotic rats, 6 weeks dosing, x ± s"}, "[6]": {"conditions": "Preps 4.6 g/kg or VitE 50 mg/kg orally once daily for 6 weeks"}}, "note": "Marks after values point to notes of the source that are not given here."}
{"molecule": "CC(=O)N[C@@H](CS)C(=O)O", "note": "[NAC, N-Acetylcysteine]", "values": [{"measurement": "Hepatic Hyp content", "setting": "[1]; [3]", "result": "482.1 ± 124.4", "unit": "μg/g liver"}, {"measurement": "Hepatic SOD activity", "setting": "[1]; [3]", "result": "252.2 ± 47.6^# 10^3 × NU/g protein"}, {"measurement": "Serum ALT", "setting": "[1]; [3]", "result": "67.7 ± 36.1", "unit": "U/L"}, {"measurement": "Serum AST", "setting": "[1]; [3]", "result": "76.5 ± 25.5", "unit": "U/L"}, {"measurement": "Serum Alb", "setting": "[1]; [3]", "result": "30.9 ± 5.5", "unit": "g/L"}, {"measurement": "Serum T. BIL", "setting": "[1]; [3]", "result": "18.8 ± 2.8", "unit": "µmol/L"}, {"measurement": "Serum T. Protein", "setting": "[1]; [3]", "result": "60.4 ± 11.2", "unit": "g/L"}, {"measurement": "Liver fibrotic stage S0 (number of rats)", "setting": "[1]; [4]", "result": 0}, {"measurement": "Liver fibrotic stage S1 (number of rats)", "setting": "[1]; [4]", "result": 1}, {"measurement": "Liver fibrotic stage S2 (number of rats)", "setting": "[1]; [4]", "result": 5}, {"measurement": "Liver fibrotic stage S3 (number of rats)", "setting": "[1]; [4]", "result": 4}, {"measurement": "Liver fibrotic stage S4 (number of rats)", "setting": "[1]; [4]", "result": 2}, {"measurement": "R (Ridit examination of liver fibrotic stages)", "setting": "[1]; [4]", "result": "0.415^#"}]}
{"molecule": "Vitamin E [Vit E]", "values": [{"measurement": "Liver tissue pathological examination (hepatic inflammation, collagen deposition; HE and Sirius red staining), in words", "setting": "[2]; CCl4 fibrotic rats, vs. model control", "result": "much better conditions of hepatic inflammation compared to the controls"}, {"measurement": "Hepatic Hyp", "setting": "[2]; [5]", "result": "296.2 ± 49.8", "unit": "μg/g liver"}, {"measurement": "Hepatic MDA", "setting": "[2]; [5]", "result": "4.5 ± 1.3", "unit": "μmol/g protien"}, {"measurement": "Hepatic SOD", "setting": "[2]; [5]", "result": "1062 ± 83", "unit": "NU/g liver"}, {"measurement": "Hepatic Triglyceride", "setting": "[2]; [5]", "result": "12.6 ± 3.7", "unit": "μg/g liver"}, {"measurement": "Serum ALT", "setting": "[2]; [5]", "result": "106.4 ± 45.9", "unit": "U/L"}, {"measurement": "Serum AST", "setting": "[2]; [5]", "result": "127.7 ± 37.2", "unit": "U/L"}, {"measurement": "Serum T. BIL", "setting": "[2]; [5]", "result": "14.1 ± 3.3", "unit": "µmol/L"}, {"measurement": "Serum T. Protein", "setting": "[2]; [5]", "result": "55.8 ± 4.2", "unit": "g/L"}, {"measurement": "Liver fibrotic stage S0 (number of rats)", "setting": "[2]; [6]", "result": 0}, {"measurement": "Liver fibrotic stage S1 (number of rats)", "setting": "[2]; [6]", "result": 6}, {"measurement": "Liver fibrotic stage S2 (number of rats)", "setting": "[2]; [6]", "result": 6}, {"measurement": "Liver fibrotic stage S3 (number of rats)", "setting": "[2]; [6]", "result": 2}, {"measurement": "Liver fibrotic stage S4 (number of rats)", "setting": "[2]; [6]", "result": 0}, {"measurement": "R (Ridit examination of liver fibrotic stages)", "setting": "[2]; [6]", "result": "0.506^#"}]}
